Consider 35 molecules from patent US20230303561A1, “PYRIMIDINONE DERIVATIVE, PREPARATION METHOD THEREOF AND USE THEREOF IN RESISTING MYCOBACTERIUM TUBERCULOSIS INFECTION” (INSTITUTE OF MEDICINAL BIOTECHNOLOGY, CHINESE ACADEMY OF …, priority 2020, published 2023).

Usually MIC stands for the least concentration at which growth counts as inhibited.

Converted amounts (≈) assume the structure as drawn.

The first experiment deals with MTB H37Rv. The experiment in a line: Bacteriostasis experiment: MIC in 96-well plate, two-fold dilution method. In kind it is cell-based, Mycobacterium tuberculosis. Conditions: MTB H37Rv (ATCC 27294), 7H9 medium, 37° C., about 10 days.
With `CSc1nc2c(c(=O)[nH]1)C(c1cccc([N+](=O)[O-])c1)CC(=O)N2` (stereo not shown) [LSL-9-09, 2-methylmercapto-5-(3-nitrophenyl)-5,6-dihydropyrido[2,3-d]pyrimidin-4,7(3H,8H)-dione], the “Inhibitory activity against Mycobacterium tuberculosis, MIC, MTB H37Rv” value worked out at 64 µg/mL.

The same experiment, now with this note: MTB H37Rv, statement on Table 1 data.
`CCCSc1nc2c(c(=O)[nH]1)C(c1ccc(OC)cc1O)CC(=O)N2` (stereo not shown) [LSL-9-02, 2-propylmercapto-5-(2-hydroxy-4-methoxyphenyl)-5,6-dihydropyrido[2,3-d]pyrimidin-4,7(3H,8H)-dione]: the “anti-mycobacterium tuberculosis MIC compared with the positive control drug INH” value was “equivalent to that of the positive control drug INH”.
On the same count and under the same terms, with `CCCOc1ccc(C2CC(=O)Nc3nc(SCCC)[nH]c(=O)c32)c(O)c1` (stereo not shown) [LSL-9-29, 2-propylmercapto-5-(2-hydroxy-4-propoxyphenyl)-5,6-dihydropyrido[2,3-d]pyrimidin-4,7(3H,8H)-dione] the entry was “equivalent to that of the positive control drug INH”.
The same measure, in the same setting: with `CCCSc1nc2c(c(=O)[nH]1)C(c1ccc3ncccc3c1)CC(=O)N2` (stereo not shown) [LSL-9-36, 2-propylmercapto-5-(quinolin-6-yl)-5,6-dihydropyrido[2,3-d]pyrimidin-4,7(3H,8H)-dione] the entry was “equivalent to that of the positive control drug INH”.
The same measure, in the same setting: the entry for `CCCSc1nc2c(c(=O)[nH]1)C(c1ccc(OCC)cc1)CC(=O)N2` (stereo not shown) [LSL-9-39, 2-propylmercapto-5-(4-ethoxyphenyl)-5,6-dihydropyrido[2,3-d]pyrimidin-4,7(3H,8H)-dione] is “equivalent to that of the positive control drug INH”.
On to `CCCSc1nc2c(c(=O)[nH]1)C(c1ccc(OC)cc1[N+](=O)[O-])CC(=O)N2` (stereo not shown) [LSL-9-41, 2-propylmercapto-5-(4-methoxy-2-nitrophenyl)-5,6-dihydropyrido[2,3-d]pyrimidin-4,7(3H,8H)-dione], for which the “anti-mycobacterium tuberculosis MIC compared with the positive control drug INH” value is “equivalent to that of the positive control drug INH”.

The same experiment, now with this note: Mycobacterium tuberculosis, ATCC 27294 / H37Rv, 240 h, MTB H37Rv (ATCC 27294), 7H9 medium, 37° C., about 10 days; read-out: Inhibitory activity against Mycobacterium tuberculosis, MIC, MTB H37Rv.
Regarding `CCCOc1ccc(C2CC(=O)Nc3nc(SC)[nH]c(=O)c32)cc1` (stereo not shown) [LSL-7-36, 2-methylmercapto-5-(4-propoxyphenyl)-5,6-dihydropyrido[2,3-d]pyrimidin-4,7(3H,8H)-dione], the MIC is 32 µg/mL (≈ 92.6 µM).
Still for that read-out and setting: the figure for `CCCSc1nc2c(c(=O)[nH]1)C(c1ccc(OC)c(O)c1)CC(=O)N2` (stereo not shown) [LSL-7-38, 2-propylmercapto-5-(3-hydroxy-4-methoxyphenyl)-5,6-dihydropyrido[2,3-d]pyrimidin-4,7(3H,8H)-dione] is 1 µg/mL (≈ 2.77 µM); for `COc1ccc(C2CC(=O)Nc3nc(SC)[nH]c(=O)c32)cc1O` (stereo not shown) [LSL-7-39, 2-methylmercapto-5-(3-hydroxy-4-methoxyphenyl)-5,6-dihydropyrido[2,3-d]pyrimidin-4,7(3H,8H)-dione] it is 16 µg/mL (≈ 48 µM); for `CCCSc1nc2c(c(=O)[nH]1)C(c1ccc(O)c(O)c1)CC(=O)N2` (stereo not shown) [LSL-7-42, 2-propylmercapto-5-(3,4-dihydroxyphenyl)-5,6-dihydropyrido[2,3-d]pyrimidin-4,7(3H,8H)-dione] it is 32 µg/mL (≈ 92.1 µM).
The same measure, in the same setting: the figure for `COc1cc(C2CC(=O)Nc3nc(SC)[nH]c(=O)c32)cc(OC)c1OC` (stereo not shown) [LSL-7-43, 2-methylmercapto-5-(3,4,5-trimethoxyphenyl)-5,6-dihydropyrido[2,3-d]pyrimidin-4,7(3H,8H)-dione] is over 64 µg/mL; for `CCCSc1nc2c(c(=O)[nH]1)C(c1cc(OC)c(OC)c(OC)c1)CC(=O)N2` (stereo not shown) [LSL-7-44, 2-propylmercapto-5-(3,4,5-trimethoxyphenyl)-5,6-dihydropyrido[2,3-d]pyrimidin-4,7(3H,8H)-dione] it is 16 µg/mL (≈ 39.5 µM); for `CCCSc1nc2c(c(=O)[nH]1)C(c1ccc(OC)c(OC)c1)CC(=O)N2` (stereo not shown) [LSL-7-46, 2-propylmercapto-5-(3,4-dimethoxyphenyl)-5,6-dihydropyrido[2,3-d]pyrimidin-4,7(3H,8H)-dione] it is 8 µg/mL (≈ 21.3 µM).
On to `CCCSc1nc2c(c(=O)[nH]1)C(c1ccc(Cl)c([N+](=O)[O-])c1)CC(=O)N2` (stereo not shown) [LSL-7-48, 2-propylmercapto-5-(3-nitro-4-chlorophenyl)-5,6-dihydropyrido[2,3-d]pyrimidin-4,7(3H,8H)-dione], for which the MIC amounted to 2 µg/mL (≈ 5.07 µM).
As for `CSc1nc2c(c(=O)[nH]1)C(c1ccc([N+](=O)[O-])cc1)CC(=O)N2` (stereo not shown) [LSL-7-49, 2-methylmercapto-5-(4-nitrophenyl)-5,6-dihydropyrido[2,3-d]pyrimidin-4,7(3H,8H)-dione], the MIC turned out to be 64 µg/mL (≈ 193 µM).
The same measure, in the same setting: with `CCCSc1nc2c(c(=O)[nH]1)C(c1ccc([N+](=O)[O-])cc1)CC(=O)N2` (stereo not shown) [LSL-7-50, 2-propylmercapto-5-(4-nitrophenyl)-5,6-dihydropyrido[2,3-d]pyrimidin-4,7(3H,8H)-dione] the figure was 64 µg/mL (≈ 178 µM); with `COc1ccc(C2CC(=O)Nc3nc(SC)[nH]c(=O)c32)c(O)c1` (stereo not shown) [LSL-9-01, 2-methylmercapto-5-(2-hydroxy-4-methoxyphenyl)-5,6-dihydropyrido[2,3-d]pyrimidin-4,7(3H,8H)-dione], 8 µg/mL (≈ 24 µM).
Same read-out and setting: the figure for `CCCSc1nc2c(c(=O)[nH]1)C(c1ccc(OC)cc1O)CC(=O)N2` (stereo not shown) [LSL-9-02, 2-propylmercapto-5-(2-hydroxy-4-methoxyphenyl)-5,6-dihydropyrido[2,3-d]pyrimidin-4,7(3H,8H)-dione] is 0.5 µg/mL (≈ 1.38 µM); for `CCCSc1nc2c(c(=O)[nH]1)C(c1cccc([N+](=O)[O-])c1)CC(=O)N2` (stereo not shown) [LSL-9-10, 2-propylmercapto-5-(3-nitrophenyl)-5,6-dihydropyrido[2,3-d]pyrimidin-4,7(3H,8H)-dione] it is 4 µg/mL (≈ 11.1 µM); for `C=CCSc1nc2c(c(=O)[nH]1)C(c1ccc(OC)c(O)c1)CC(=O)N2` (stereo not shown) [LSL-9-15, 2-allylmercapto-5-(3-hydroxy-4-methoxyphenyl)-5,6-dihydropyrido[2,3-d]pyrimidin-4,7(3H,8H)-dione] it is 2 µg/mL (≈ 5.56 µM).
Still for that read-out and setting: with `C=CCSc1nc2c(c(=O)[nH]1)C(c1ccc(OC)c(OC)c1)CC(=O)N2` (stereo not shown) [LSL-9-17, 2-allylmercapto-5-(3,4-dimethoxyphenyl)-5,6-dihydropyrido[2,3-d]pyrimidin-4,7(3H,8H)-dione] the figure was 8 µg/mL (≈ 21.4 µM); with `CCCSc1nc2c(c(=O)[nH]1)C(c1ccc(I)cc1)CC(=O)N2` (stereo not shown) [LSL-9-19, 2-propylmercapto-5-(4-iodophenyl)-5,6-dihydropyrido[2,3-d]pyrimidin-4,7(3H,8H)-dione], over 64 µg/mL.
Turning to `CCCSc1nc2c(c(=O)[nH]1)C(c1ccc(OC)c(O)c1O)CC(=O)N2` (stereo not shown) [LSL-9-23, 2-propylmercapto-5-(2,3-dihydroxy-4-methoxyphenyl)-5,6-dihydropyrido[2,3-d]pyrimidin-4,7(3H,8H)-dione], the minimal inhibitory concentration (MIC) is 64 µg/mL (≈ 170 µM).
Same read-out and setting: the figure for `CCCOc1ccc(C2CC(=O)Nc3nc(SCCC)[nH]c(=O)c32)cc1O` (stereo not shown) [LSL-9-25, 2-propylmercapto-5-(3-hydroxy-4-propoxyphenyl)-5,6-dihydropyrido[2,3-d]pyrimidin-4,7(3H,8H)-dione] is 4 µg/mL (≈ 10.3 µM); for `CCCSc1nc2c(c(=O)[nH]1)C(c1ccc(Br)cc1)CC(=O)N2` (stereo not shown) [LSL-9-26, 2-propylmercapto-5-(4-bromophenyl)-5,6-dihydropyrido[2,3-d]pyrimidin-4,7(3H,8H)-dione] it is 2 µg/mL (≈ 5.07 µM); for `CCCSc1nc2c(c(=O)[nH]1)C(c1ccc(F)cc1)CC(=O)N2` (stereo not shown) [LSL-9-27, 2-propylmercapto-5-(4-fluorophenyl)-5,6-dihydropyrido[2,3-d]pyrimidin-4,7(3H,8H)-dione] it is over 64 µg/mL.
Regarding `CCCOc1ccc(C2CC(=O)Nc3nc(SCCC)[nH]c(=O)c32)c(O)c1` (stereo not shown) [LSL-9-29, 2-propylmercapto-5-(2-hydroxy-4-propoxyphenyl)-5,6-dihydropyrido[2,3-d]pyrimidin-4,7(3H,8H)-dione], the MIC was 0.5 µg/mL (≈ 1.28 µM).
With `CCCSc1nc2c(c(=O)[nH]1)C(c1ccc(OCc3ccccc3)cc1)CC(=O)N2` (stereo not shown) [LSL-9-31, 2-propylmercapto-5-(4-benzyloxyphenyl)-5,6-dihydropyrido[2,3-d]pyrimidin-4,7(3H,8H)-dione], the MIC was determined as 16 µg/mL (≈ 38 µM).
Regarding `CCCSc1nc2c(c(=O)[nH]1)C(c1ccc(Oc3ccccc3)cc1)CC(=O)N2` (stereo not shown) [LSL-9-32, 2-propylmercapto-5-(4-phenoxyphenyl)-5,6-dihydropyrido[2,3-d]pyrimidin-4,7(3H,8H)-dione], the minimal inhibitory concentration (MIC) was over 64 µg/mL.
On the same count and under the same terms, with `CCCSc1nc2c(c(=O)[nH]1)C(c1cc(O)c(O)c(O)c1)CC(=O)N2` (stereo not shown) [LSL-9-33, 2-propylmercapto-5-(3,4,5-trihydroxyphenyl)-5,6-dihydropyrido[2,3-d]pyrimidin-4,7(3H,8H)-dione] the figure was 64 µg/mL (≈ 176 µM).
For the molecule `CCCSc1nc2c(c(=O)[nH]1)C(c1ccc(OC(F)(F)F)cc1)CC(=O)N2` (stereo not shown) [LSL-9-35, 2-propylmercapto-5-(4-trifluoromethoxyphenyl)-5,6-dihydropyrido[2,3-d]pyrimidin-4,7(3H,8H)-dione], the MIC turned out to be 64 µg/mL (≈ 160 µM).
The same measure, in the same setting: with `CCCSc1nc2c(c(=O)[nH]1)C(c1ccc3ncccc3c1)CC(=O)N2` (stereo not shown) [LSL-9-36, 2-propylmercapto-5-(quinolin-6-yl)-5,6-dihydropyrido[2,3-d]pyrimidin-4,7(3H,8H)-dione] the figure was 0.125 µg/mL (≈ 0.341 µM).
`CCCSc1nc2c(c(=O)[nH]1)C(c1ccc(C)cc1)CC(=O)N2` (stereo not shown) [LSL-9-37, 2-propylmercapto-5-(4-methylphenyl)-5,6-dihydropyrido[2,3-d]pyrimidin-4,7(3H,8H)-dione]: the MIC came to 2 µg/mL (≈ 6.07 µM).
Regarding `CCCSc1nc2c(c(=O)[nH]1)C(c1ccc(C(F)(F)F)cc1)CC(=O)N2` (stereo not shown) [LSL-9-38, 2-propylmercapto-5-(4-trifluoromethylphenyl)-5,6-dihydropyrido[2,3-d]pyrimidin-4,7(3H,8H)-dione], the MIC was 16 µg/mL (≈ 41.7 µM).
In the case of `CCCSc1nc2c(c(=O)[nH]1)C(c1ccc(OCC)cc1)CC(=O)N2` (stereo not shown) [LSL-9-39, 2-propylmercapto-5-(4-ethoxyphenyl)-5,6-dihydropyrido[2,3-d]pyrimidin-4,7(3H,8H)-dione], the MIC was found to be 0.5 µg/mL (≈ 1.39 µM).
On to `CCCSc1nc2c(c(=O)[nH]1)C(c1ccc(OC)c([N+](=O)[O-])c1)CC(=O)N2` (stereo not shown) [LSL-9-40, 2-propylmercapto-5-(4-methoxy-3-nitrophenyl)-5,6-dihydropyrido[2,3-d]pyrimidin-4,7(3H,8H)-dione], for which the MIC was 4 µg/mL (≈ 10.2 µM).
Consider `CCCSc1nc2c(c(=O)[nH]1)C(c1ccc(OC)cc1[N+](=O)[O-])CC(=O)N2` (stereo not shown) [LSL-9-41, 2-propylmercapto-5-(4-methoxy-2-nitrophenyl)-5,6-dihydropyrido[2,3-d]pyrimidin-4,7(3H,8H)-dione], for which the MIC is 0.125 µg/mL (≈ 0.32 µM).
Consider `CCCSc1nc2c(c(=O)[nH]1)C(c1ccc(Cl)c(N)c1)CC(=O)N2` (stereo not shown) [LSL-9-43, 2-propylmercapto-5-(3-amino-4-chlorophenyl)-5,6-dihydropyrido[2,3-d]pyrimidin-4,7(3H,8H)-dione], for which the MIC was found to be 4 µg/mL (≈ 11 µM).
On the same count and under the same terms, the figure for `CCCSc1nc2c(c(=O)[nH]1)C(c1ccc(N)cc1)CC(=O)N2` (stereo not shown) [LSL-9-44, 2-propylmercapto-5-(4-aminophenyl)-5,6-dihydropyrido[2,3-d]pyrimidin-4,7(3H,8H)-dione] is 16 µg/mL (≈ 48.4 µM); for `CCCSc1nc2c(c(=O)[nH]1)C(c1cccc(OC)c1)CC(=O)N2` (stereo not shown) [LSL-9-47, 2-propylmercapto-5-(3-methoxyphenyl)-5,6-dihydropyrido[2,3-d]pyrimidin-4,7(3H,8H)-dione] it is 4 µg/mL (≈ 11.6 µM).
